Experimental data from the NIST ThermoML archive (doi:10.1016/j.jct.2019.01.025).

Experiments:
[1] = xn = mol fraction of the nth substance listed; settings: 100 kPa, Liquid, Vibrating tube method
[2] = 101.33 kPa, Liquid, Vibrating tube method

NCCO [2-aminoethan-1-ol] + CCO
mass density [kg/m3], [1]
Settings	x1 = 0.0773	x1 = 0.1586	x1 = 0.2443	x1 = 0.3346	x1 = 0.43	x1 = 0.5308	x1 = 0.6377	x1 = 0.7511	x1 = 0.8716	x1 = 1
293.15 K	810.46	831.93	853.39	876.12	899.09	921.99	945.08	968.64	992.58	1016.47
298.15 K	806.22	827.71	849.2	871.96	894.95	917.9	941.02	964.62	988.58	1012.53
303.15 K	801.86	823.37	844.9	867.69	890.7	913.65	936.83	960.48	984.46	1008.47
308.15 K	797.55	819.07	840.65	863.47	886.5	909.55	932.73	956.42	980.42	1004.49
313.15 K	793.21	814.75	836.38	859.23	882.29	905.4	928.6	952.34	976.38	1000.5
318.15 K	788.71	810.29	831.96	854.85	877.94	901.1	924.34	948.13	972.21	996.39
323.15 K	784.27	805.9	827.62	850.55	873.69	896.9	920.19	944.04	968.17	992.41

CC(C)(C)O [2-methylpropan-2-ol] + NCCO
[1], x2 = 0
Settings	mass density [kg/m3]
298.15 K	780.61
303.15 K	775.42
308.15 K	770.21
313.15 K	764.92
318.15 K	759.42
323.15 K	753.95

NCCO [2-aminoethan-1-ol] + CC(C)O
mass density [kg/m3], [1]
Settings	x1 = 0.0986	x1 = 0.1974	x1 = 0.2966	x1 = 0.3961	x1 = 0.496	x1 = 0.5961	x1 = 0.6966	x1 = 0.7974	x1 = 0.8985	x1 = 1
293.15 K	804.43	824.39	844.97	868.88	891.61	915.69	939.56	965.29	989.95	1016.47
298.15 K	800.28	820.25	840.83	864.78	887.55	911.65	935.53	961.29	985.96	1012.53
303.15 K	795.98	815.98	836.58	860.58	883.37	907.48	931.4	957.17	981.86	1008.47
308.15 K	791.72	811.76	832.38	856.42	879.25	903.38	927.32	953.13	977.84	1004.49
313.15 K	787.39	807.48	828.13	852.23	875.1	899.25	923.23	949.07	973.81	1000.5
318.15 K	782.87	803.04	823.74	847.9	870.82	895	919	944.88	969.66	996.39
323.15 K	778.38	798.63	819.42	843.64	866.61	890.84	914.87	940.8	965.62	992.41

CC(C)O [propan-2-ol]
[2]
Settings	mass density [kg/m3]
293.15 K	785.1
298.15 K	780.91
303.15 K	776.57
308.15 K	772.24
313.15 K	767.82
318.15 K	763.19
323.15 K	758.55

NCCO [2-aminoethan-1-ol] + CCCO
mass density [kg/m3], [1]
Settings	x1 = 0.0986	x1 = 0.1974	x1 = 0.2966	x1 = 0.3961	x1 = 0.496	x1 = 0.5961	x1 = 0.6966	x1 = 0.7974	x1 = 0.8985	x1 = 1
293.15 K	823.05	842.4	862.05	882.56	903.81	924.46	946.99	969.87	992.94	1016.47
298.15 K	818.95	838.27	857.94	878.51	899.73	920.46	942.97	965.86	988.96	1012.53
303.15 K	814.83	834.12	853.8	874.37	895.6	916.36	938.85	961.75	984.88	1008.47
308.15 K	810.75	830.03	849.74	870.31	891.55	912.32	934.79	957.71	980.88	1004.49
313.15 K	806.64	825.91	845.63	866.21	887.47	908.27	930.72	953.68	976.87	1000.5
318.15 K	802.38	821.65	841.39	861.99	883.26	904.08	926.53	949.53	972.75	996.39
323.15 K	798.19	817.46	837.23	857.84	879.14	899.9	922.45	945.49	968.76	992.41

CCCCO [butan-1-ol] + NCCO
[1], x2 = 0
Settings	mass density [kg/m3]
293.15 K	809.77
298.15 K	805.92
303.15 K	802
308.15 K	798.14
313.15 K	794.24
318.15 K	790.2
323.15 K	786.21

NCCO [2-aminoethan-1-ol] + CC(C)(C)O
mass density [kg/m3], [1]
Settings	x1 = 0.1188	x1 = 0.2328	x1 = 0.3421	x1 = 0.4472	x1 = 0.5482	x1 = 0.6454	x1 = 0.739	x1 = 0.8291	x1 = 0.9161	x1 = 1
298.15 K	801.37	821.17	842.86	865.97	887.94	912.32	938.36	962.65	988.97	1012.53
303.15 K	796.64	816.75	838.57	861.74	883.79	908.2	934.25	958.59	984.91	1008.47
308.15 K	791.93	812.34	834.31	857.55	879.69	904.13	930.2	954.6	980.92	1004.49
313.15 K	787.14	807.85	829.98	853.33	875.55	900.04	926.15	950.59	976.92	1000.5
318.15 K	782.16	803.17	825.49	848.95	871.27	895.8	921.97	946.45	972.81	996.39
323.15 K	777.17	798.52	821.03	844.64	867.05	891.65	917.86	942.41	968.8	992.41

NCCO [2-aminoethan-1-ol] + CC(C)CO
mass density [kg/m3], [1]
Settings	x1 = 0.1188	x1 = 0.2328	x1 = 0.3421	x1 = 0.4472	x1 = 0.5482	x1 = 0.6454	x1 = 0.739	x1 = 0.8291	x1 = 0.9161	x1 = 1
293.15 K	819.76	840.36	859.83	880.16	901.41	923.2	946.54	967.04	992.18	1016.47
298.15 K	815.85	836.42	855.88	876.22	897.44	919.26	942.54	963.08	988.22	1012.53
303.15 K	811.84	832.41	851.83	872.2	893.38	915.22	938.44	959.04	984.12	1008.47
308.15 K	807.88	828.46	847.85	868.25	889.39	911.26	934.38	955.07	980.15	1004.49
313.15 K	803.87	824.49	843.85	864.27	885.38	907.27	930.38	951.07	976.15	1000.5
318.15 K	799.72	820.35	839.71	860.15	881.25	903.15	926.19	946.97	972.04	996.39
323.15 K	795.62	816.29	835.65	856.12	877.2	899.14	922.11	942.97	968.05	992.41

CC(C)CO [2-methyl-1-propanol] + NCCO
[1], x2 = 0
Settings	mass density [kg/m3]
293.15 K	801.85
298.15 K	797.99
303.15 K	794.03
308.15 K	790.09
313.15 K	786.12
318.15 K	781.97
323.15 K	777.86

CC(C)O [propan-2-ol] + NCCO
[1], x2 = 0
Settings	mass density [kg/m3]
293.15 K	785.1
298.15 K	780.91
303.15 K	776.57
308.15 K	772.24
313.15 K	767.82
318.15 K	763.19
323.15 K	758.55

NCCO [2-aminoethan-1-ol] + CCCCO
mass density [kg/m3], [1]
Settings	x1 = 0.1188	x1 = 0.2328	x1 = 0.3421	x1 = 0.4472	x1 = 0.5482	x1 = 0.6454	x1 = 0.739	x1 = 0.8291	x1 = 0.9161	x1 = 1
293.15 K	828.26	846.15	864.71	884.56	904.81	925.84	947.05	969.79	993.15	1016.47
298.15 K	824.33	842.24	860.76	880.66	900.83	921.87	943.04	965.8	989.15	1012.53
303.15 K	820.32	838.27	856.75	876.66	896.78	917.83	938.98	961.75	985.1	1008.47
308.15 K	816.39	834.35	852.81	872.72	892.82	913.86	935	957.78	981.13	1004.49
313.15 K	812.46	830.41	848.84	868.77	888.83	909.88	931	953.79	977.14	1000.5
318.15 K	808.37	826.33	844.74	864.67	884.72	905.76	926.88	949.68	973.04	996.39
323.15 K	804.35	822.32	840.73	860.67	880.7	901.75	922.86	945.68	969.05	992.41

CCCO [propan-1-ol] + NCCO
[1], x2 = 0
Settings	mass density [kg/m3]
293.15 K	803.77
298.15 K	799.69
303.15 K	795.58
308.15 K	791.52
313.15 K	787.42
318.15 K	783.17
323.15 K	778.96

CCO [ethanol] + NCCO
[1], x2 = 0
Settings	mass density [kg/m3]
293.15 K	789.4
298.15 K	785.13
303.15 K	780.75
308.15 K	776.41
313.15 K	772.04
318.15 K	767.52
323.15 K	763.04
